Literature values, collected in publication PMC7998926 (Microorganisms, 2021).

Tested on: MARV
Conditions: mouse, in vivo; cited from earlier work

Compound: CC(C)COCC(CN(Cc1ccccc1)c1ccccc1)N1CCCC1 (stereo not shown) [Bepridil]
- protection: strongly protected
